According to paper PMC4045308 (Investigational New Drugs, 2013):
Values joined by “and” are separate entries in the source; they are usually repeats but may differ in a detail not shown here. Identical values can stand only once. Like-named read-outs stand apart in the source and are kept apart here. Marks after values point to notes of the source that are not given here.

Tests used:
[1] = system: aggressive B- and T-cell NHL; conditions: 50 mg BID, cited from earlier work
[2] = system: advanced heme-lymphatic malignancies (MM, NHL, CLL); assay: phase I study: antitumor response; format: in vivo, patients
Protocol: Response was evaluated according to the International Working Group criteria for patients with lymphoma, the International Myeloma Working Group uniform response criteria for patients with MM [28], and the International Workshop on CLL guidelines.

[3] = system: mantle cell lymphoma; conditions: cited from earlier work
[4] = twice-daily (BID), 7-day schedule in 21-day cycles, solid tumors; cited from earlier work
[5] = molecular target: AAK; conditions: read-out: inhibition constant (Ki); cited from earlier work
[6] = phase I study: plasma pharmacokinetics; format: in vivo, patients; conditions: for AUC(0-t) / Tmax / half-life: human, plasma, oral; for AUC(0-t): read-out: Geometric mean AUC0–tlast (CV, %); for Tmax: read-out: Median Tmax (range)
Excerpt: PK parameters included: area under the plasma concentration versus time curve, maximum plasma concentration, time to maximum plasma concentration (Tmax), terminal half-life (t1/2), accumulation ratio (Rac), and peak/trough ratio. Secondary endpoints were response rate, duration of response, and evaluation of banked tumor tissue samples for AAK protein expression and gene amplification.
Plasma samples were collected in cycle 1 at various time points on the first day (day 1) and last day (day 7, ECT 7-day schedule; day 14, PIC or ECT 14-day schedules; day 21, PIC 21-day schedule) of treatment. PK parameters were calculated by non-compartmental analysis using WinNonlin software (v5.2.1, Pharsight Corporation, Cary, NC).

[7] = system: AAK; conditions: cell-based assays; cited from earlier work
[8] = molecular target: Aurora B kinase; conditions: cell-based assays; cited from earlier work
[9] = cited from earlier work
[10] = system: multiple myeloma (MM) cells; conditions: in vitro; cited from earlier work
[11] = phase I study: DLTs and MTD
Protocol: Dosing schedules are summarized in Supplementary Fig. S1 (online only). The PIC formulation starting dose was 25 or 35 mg/day. […] For the ECT formulation, the starting dose was 40 mg/day QD for 14 days followed by 14 days’ rest in 28-day cycles.
If 2 of the first 3–6 patients experienced DLTs at a given dose level, dose escalation was delayed while the available safety/clinical data were assessed and a decision made on how to proceed with a modified dose or schedule. […] The use of myeloid growth factors (G-CSF or GM-CSF) or erythropoiesis-stimulating agents was permitted after the DLT evaluation period was completed (cycle 1) and on a case-by-case basis after cycle 2. Treatment continued for up to 12 months, or until disease progression or unacceptable toxicity, with the possibility of treatment extension beyond 12 months if clinical benefit was evident and toxicities were manageable.

[12] = phase I study: adverse events (NCI-CTCAE v3.0)
[13] = in vivo
[14] = system: PTCL cell lines; conditions: cited from earlier work
[15] = system: xenograft MM model; conditions: cited from earlier work
[16] = 30 mg, ECT 30 mg BID, 7-day schedule, Day 1, first dose, N 3
[17] = 30 mg, ECT 30 mg BID, 7-day schedule, Day 7, N 3
[18] = 40 mg, ECT 40 mg BID, 7-day schedule, Day 1, first dose, N 9
[19] = 40 mg, ECT 40 mg BID, 7-day schedule, Day 7, N 8
[20] = 50 mg, ECT 50 mg BID, 7-day schedule, Day 7, N 7

COc1cc(Nc2ncc3c(n2)-c2ccc(Cl)cc2C(c2c(F)cccc2OC)=NC3)ccc1C(=O)O [MLN8237, alisertib]
CR ([1]; 48 treated patients): 10%
PR ([1]; 48 treated patients): 17%
overall response rate ([1]; 48 treated patients): 27%
patients achieving SD ([1]; 48 treated patients): 33%
patients with T-cell lymphoma who had a response [1]: 4/8
patients achieving partial response (PR) ([2]; 47 response-evaluable patients): 13%
patients with partial response (PR) ([2]; 47 response-evaluable patients): 6 patients
patients discontinued due to progressive disease ([2]; N = 58): 64%
tumor growth [3]: inhibit tumor growth
maximum tolerated dose (MTD) [4]: 50 mg
Ki [5]: 0.43 nM
Geometric mean CLss/F (CV, %) ([6]; ECT 30 mg BID, 7-day schedule, Day 7, N 3): 3.7 (0.7) L/h
Geometric mean CLss/F (CV, %) ([6]; ECT 40 mg BID, 7-day schedule, Day 7, n=7): 4.4 (1.9) ^† L/h
Geometric mean CLss/F (CV, %) ([6]; ECT 50 mg BID, 7-day schedule, Day 7, N 7): 6.7 (5.6) L/h
Mean CLss/F ([6]; all formulations, CV 69 %, n = 42): 4.8 L/h
AUC(0-t) [6, 16]: 5.52 µM·h
Tmax [6, 16]: 2 h
AUC(0-t) [6, 17]: 16 µM·h
Tmax [6, 17]: 2 h
half-life ([6]; 30 mg, ECT 30 mg BID, 7-day schedule, Day 7, n=1, read-out: Mean t1/2 (sd) (converted)): 13.3 h
AUC(0-t) [6, 18]: 7.09 µM·h
Tmax [6, 18]: 2.2 h
AUC(0-t) [6, 19]: 18.6 µM·h
Tmax [6, 19]: 2 h
half-life ([6]; 40 mg, ECT 40 mg BID, 7-day schedule, Day 7, n=4, read-out: Mean t1/2 (sd) (converted)): 19.9 h
Tmax ([6]; 50 mg, ECT 50 mg BID, 7-day schedule, Day 1, first dose, N 10): 2 h
AUC(0-t) ([6]; 50 mg, ECT 50 mg BID, 7-day schedule, Day 1, first dose, n=9): 9.73 µM·h
AUC(0-t) [6, 20]: 17.9 µM·h
Tmax [6, 20]: 2 h
half-life ([6]; 50 mg, ECT 50 mg BID, 7-day schedule, Day 7, n=5, read-out: Mean t1/2 (sd) (converted)): 18.4 h
half-life ([6]; multiple-dose administration, PIC and ECT, read-out: overall mean steady-state t1/2 (terminal half-life) (converted)): ~19 h
half-life ([6]; multiple-dose administration, PIC and ECT, read-out: steady-state t1/2, range): 10 to 43 h
aqueous solubility [9]: low
effect on MM cells [10]: mitotic spindle abnormalities, mitotic accumulation, and apoptosis
MTD ([11]; ECT 7-day schedule, BID): 50 mg
MTD ([11]; PIC 14-day schedule, QD): 45 mg
recommended phase II dose ([11]; human, in vivo, 7 days): 50 mg
patients reporting drug-related AEs ([12]; N = 58): 90%
grade 3 or higher febrile neutropenia, frequency ([12]; all cohorts): 9%
grade ≥3 drug-related anemia, patients ([12]; all cohorts, N = 58): 19%
grade ≥3 drug-related leukopenia, patients ([12]; all cohorts, N = 58): 19%
grade ≥3 drug-related neutropenia, patients ([12]; all cohorts, N = 58): 45%
grade ≥3 drug-related thrombocytopenia, patients ([12]; all cohorts, N = 58): 28%
Alopecia, drug-related AE, All grades ([12]; all doses and schedules): 15 (26) n (%)
Anemia, drug-related AE, All grades ([12]; all doses and schedules): 19 (33) n (%)
Anemia, drug-related AE, Grade ≥3 ([12]; all doses and schedules): 11 (19) n (%)
Decreased WBC count, drug-related AE, All grades ([12]; all doses and schedules): 5 (9) n (%)
Decreased WBC count, drug-related AE, Grade ≥3 ([12]; all doses and schedules): 3 (5) n (%)
Diarrhea, drug-related AE, All grades ([12]; all doses and schedules): 20 (34) n (%)
Diarrhea, drug-related AE, Grade ≥3 ([12]; all doses and schedules): 1 (2) n (%)
Fatigue, drug-related AE, All grades ([12]; all doses and schedules): 15 (26) n (%)
Fatigue, drug-related AE, Grade ≥3 ([12]; all doses and schedules): 2 (3) n (%)
Febrile neutropenia, drug-related AE, All grades ([12]; all doses and schedules): 5 (9) n (%)
Febrile neutropenia, drug-related AE, Grade ≥3 ([12]; all doses and schedules): 5 (9) n (%)
Leukopenia, drug-related AE, All grades ([12]; all doses and schedules): 13 (22) n (%)
Leukopenia, drug-related AE, Grade ≥3 ([12]; all doses and schedules): 11 (19) n (%)
Lymphopenia, drug-related AE, All grades ([12]; all doses and schedules): 8 (14) n (%)
Lymphopenia, drug-related AE, Grade ≥3 ([12]; all doses and schedules): 4 (7) n (%)
Nausea, drug-related AE, All grades ([12]; all doses and schedules): 12 (21) n (%)
Neutropenia, drug-related AE, All grades ([12]; all doses and schedules): 33 (57) n (%)
Neutropenia, drug-related AE, Grade ≥3 ([12]; all doses and schedules): 26 (45) n (%)
Somnolence, drug-related AE, All grades ([12]; all doses and schedules): 6 (10) n (%)
Stomatitis, drug-related AE, All grades ([12]; all doses and schedules): 7 (12) n (%)
Stomatitis, drug-related AE, Grade ≥3 ([12]; all doses and schedules): 1 (2) n (%)
Thrombocytopenia, drug-related AE, All grades ([12]; all doses and schedules): 24 (41) n (%)
Thrombocytopenia, drug-related AE, Grade ≥3 ([12]; all doses and schedules): 16 (28) n (%)
Vomiting, drug-related AE, All grades ([12]; all doses and schedules): 8 (14) n (%)
On-study deaths ([12]; during treatment or within 30 days of last dose): 6 (10 %) n (%) and 6 (10) n (%)
discontinued treatment due to drug-related bullous dermatitis ([12]; in vivo): 1 n
discontinued treatment due to drug-related confusion ([12]; in vivo): 1 n
discontinued treatment due to drug-related thrombocytopenia ([12]; in vivo): 4 n
tolerability ([12]; patients with advanced heme-lymphatic malignancies): generally well tolerated
Any AE resulting in discontinuation ([12]; safety population): 9 (16 %) n (%) and 9 (16) n (%)
Any drug-related AE ([12]; safety population): 52 (90) n (%)
Any drug-related grade ≥3 AE ([12]; safety population): 35 (60 %) n (%) and 35 (60) n (%)
Any treatment-emergent AE ([12]; safety population): 58 (100) n (%)
Any treatment-emergent grade ≥3 AE ([12]; safety population): 46 (79) n (%)
Any treatment-emergent serious AE ([12]; safety population): 28 (48) n (%)
on-study deaths considered treatment-related [13]: none
effect on PTCL cell lines [14]: induces endo-reduplication and apoptosis
overall survival ([15]; P = 0.0044): significantly increased
tumor burden ([15]; P = 0.007): significantly reduced
